In this test the target is ROCK2 (Homo sapiens, UniProt O75116). Briefly: ROCK2 kinase inhibition assay (Caliper LABCHIP, FITC peptide substrate). The format is biochemical. The conditions noted are these: 5 μM ATP, 1.5 μM peptide substrate; value ranges. As for the experimental part:
The effectiveness of compounds of the present invention as ROCK inhibitors can be determined in a 30 μL assay containing 20 mM HEPES, pH 7.5, 20 mM MgCl2, 0.015% Brij-35, 4 mM DTT, 5 μM ATP and 1.5 μM peptide substrate (FITC-AHA-AKRRRLSSLRA-OH). Compounds were dissolved in DMSO so that the final concentration of DMSO was <2%, and the reaction was initiated with Rho kinase variants. After incubation, the reaction was terminated by the addition of EDTA and the phosphorylated and non-phosphorylated peptides separated using a LABCHIP® 3000 Reader (Caliper Life Sciences). […] Compounds were tested in dose-response format, and the inhibition of kinase activity was calculated at each concentration of compound. The inhibition data were fit using a curve-fitting program to determine the IC50; i.e., the concentration of compound required to inhibit 50% of kinase activity.
Representative Examples were tested in the ROCK2 assay described above and found having ROCK inhibitory activity.
Sequence of ROCK2 (O75116 whole entry, species assumed): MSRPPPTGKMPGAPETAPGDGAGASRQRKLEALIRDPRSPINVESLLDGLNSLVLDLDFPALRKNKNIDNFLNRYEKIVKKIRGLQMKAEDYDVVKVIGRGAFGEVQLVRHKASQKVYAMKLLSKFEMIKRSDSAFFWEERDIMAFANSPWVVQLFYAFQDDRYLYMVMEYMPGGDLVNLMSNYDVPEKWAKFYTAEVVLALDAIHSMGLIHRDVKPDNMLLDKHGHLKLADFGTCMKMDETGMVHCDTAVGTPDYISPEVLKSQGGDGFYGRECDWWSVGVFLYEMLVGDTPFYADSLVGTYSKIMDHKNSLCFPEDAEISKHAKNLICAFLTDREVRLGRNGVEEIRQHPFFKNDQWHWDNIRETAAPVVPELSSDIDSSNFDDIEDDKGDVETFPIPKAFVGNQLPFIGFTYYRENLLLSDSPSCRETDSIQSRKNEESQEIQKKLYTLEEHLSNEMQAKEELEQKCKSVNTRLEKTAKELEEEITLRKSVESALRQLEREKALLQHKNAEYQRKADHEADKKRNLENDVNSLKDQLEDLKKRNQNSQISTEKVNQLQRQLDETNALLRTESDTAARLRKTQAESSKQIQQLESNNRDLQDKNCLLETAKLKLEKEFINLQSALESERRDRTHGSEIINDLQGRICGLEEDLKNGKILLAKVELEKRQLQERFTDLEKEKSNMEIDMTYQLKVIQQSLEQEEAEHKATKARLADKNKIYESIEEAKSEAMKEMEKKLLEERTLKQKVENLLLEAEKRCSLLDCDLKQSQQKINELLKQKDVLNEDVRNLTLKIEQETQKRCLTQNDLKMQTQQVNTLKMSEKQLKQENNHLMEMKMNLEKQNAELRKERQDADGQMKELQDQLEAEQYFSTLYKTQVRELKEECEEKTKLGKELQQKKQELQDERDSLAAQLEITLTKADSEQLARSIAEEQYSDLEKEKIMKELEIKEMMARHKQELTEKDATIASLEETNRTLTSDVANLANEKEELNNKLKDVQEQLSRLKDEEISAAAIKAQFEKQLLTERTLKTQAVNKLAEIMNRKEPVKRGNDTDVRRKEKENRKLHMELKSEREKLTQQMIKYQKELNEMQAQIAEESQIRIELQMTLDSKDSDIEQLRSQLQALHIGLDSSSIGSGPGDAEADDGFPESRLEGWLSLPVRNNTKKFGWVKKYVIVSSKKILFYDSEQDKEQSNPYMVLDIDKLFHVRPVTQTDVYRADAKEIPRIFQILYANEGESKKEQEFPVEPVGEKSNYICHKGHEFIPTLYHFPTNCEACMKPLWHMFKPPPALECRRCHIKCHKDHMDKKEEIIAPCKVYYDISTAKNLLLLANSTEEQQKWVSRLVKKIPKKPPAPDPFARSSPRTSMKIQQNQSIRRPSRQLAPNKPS
For the molecule `COc1cc(F)cc(CN2CCN(c3ccc(-c4cn[nH]c4)c(C)n3)C2=O)c1` [Example 178, 1-(3-fluoro-5-methoxy-benzyl)-3-(6-methyl-5-(1H-pyrazol-4-yl)pyridin-2-yl)-imidazolidin-2-one], the half-maximal inhibitory concentration (IC50) lay within 2.1 to 20 nM.

In the case of `COc1cc(CN2CCN(c3ccc(-c4cn[nH]c4)cc3)C2=O)ccc1F` [Example 263, 1-(4-(1H-pyrazol-4-yl)phenyl)-3-(4-fluoro-3-methoxybenzyl)imidazolidin-2-one], the 50% inhibitory concentration (IC50) was in the range of 2.1 to 20 nM.

`COc1nc(N2CCN(Cc3cccc(C)c3)C2=O)ccc1-c1cn[nH]c1` [Example 257, 1-(6-methoxy-5-(1H-pyrazol-4-yl)pyridin-2-yl)-3-(3-methylbenzyl)imidazolidin-2-one] returned a half-maximal inhibitory concentration (IC50) of 2.1 to 20 nM.

The molecule `COc1cc(N2CCN(Cc3cccc(F)c3)C2=O)ccc1-c1cn[nH]c1` [Example 6, 1-(3-Fluorobenzyl)-3-(3-methoxy-4-(1H-pyrazol-4-yl)phenyl)imidazolidin-2-one] came in with an IC50 of 2.1 to 20 nM.

Take `CCc1cc(N2CCN(Cc3cccc(F)c3)C2=O)ccc1-c1cn[nH]c1` [Example 24, 1-(3-Ethyl-4-(1H-pyrazol-4-yl)phenyl)-3-(3-fluorobenzyl)imidazolidin-2-one]: the IC50 was 2.1 to 20 nM.

`COc1cccc(C(CO)n2ccn(-c3ccc(-c4cn[nH]c4)c(OC)c3)c2=O)c1` (single isomer, unassigned) [Example 361, 1-(2-hydroxy-1-(3-methoxyphenyl)ethyl)-3-(3-methoxy-4-(1H-pyrazol-4-yl)phenyl)-1H-imidazol-2(3H)-one] gave an IC50 of 2.1 to 20 nM.

In turn, `COc1nc(N2CCN(Cc3cccc(F)c3F)C2=O)ccc1-c1cn[nH]c1` [Example 223, 1-(2,3-difluorobenzyl)-3-(6-methoxy-5-(1H-pyrazol-4-yl)pyridin-2-yl)imidazolidin-2-one] registered an IC50 of 2.1 to 20 nM.

As to `CNc1nc(N2CCN(Cc3ccc(F)c(OC)c3)C2=O)ccc1-c1cn[nH]c1` [Example 199, 1-(4-fluoro-3-methoxy-benzyl)-3-(6-(methyl-amino)-5-(1H-pyrazol-4-yl)pyridin-2-yl)-imidazolidin-2-one], the IC50 was 20.1 to 200 nM.

`COc1cccc(C(C)n2ccn(-c3ccc(-c4ccnc5[nH]ccc45)cc3)c2=O)c1` (single isomer, unassigned) [Example 325, 1-(4-(1H-Pyrrolo[2,3-b]pyridin-4-yl)phenyl)-3-(1-(3-methoxyphenyl)ethyl)-1H-imidazol-2(3H)-one]: the IC50 is 20.1 to 200 nM.

Consider `COc1cccc(C(CO)N2CCN(c3ccc(-c4cn[nH]c4)cn3)C2=O)c1` (single isomer, unassigned) [Example 462, 1-(5-(1H-pyrazol-4-yl)pyridin-2-yl)-3-(2-hydroxy-1-(3-methoxyphenyl)ethyl)imidazolidin-2-one], for which the IC50 lay within 20.1 to 200 nM.

The molecule `CC(c1cccc(OCC2CC2)c1)n1ccn(-c2ccc(-c3cn[nH]c3)cc2)c1=O` (single isomer, unassigned) [Example 356, 1-(4-(1H-pyrazol-4-yl)phenyl)-3-(1-(3-(cyclopropylmethoxy)phenyl)ethyl)-1H-imidazol-2(3H)-one] gave an IC50 of 200 to 2000 nM.

Regarding `COc1cc(N2CC(=O)N(Cc3ccccc3Cl)C2=O)ccc1-c1cn[nH]c1` [Example 104, 3-(2-chlorobenzyl)-1-(3-methoxy-4-(1H-pyrazol-4-yl)phenyl)imidazolidine-2,4-dione], the IC50 was 20.1 to 200 nM.

For the molecule `COc1nc(N2CCN(Cc3cccc(Cl)c3)C2=O)ccc1-c1cn[nH]c1` [Example 256, 1-(3-chlorobenzyl)-3-(6-methoxy-5-(1H-pyrazol-4-yl)pyridin-2-yl)imidazolidin-2-one], the IC50 was in the range of 2.1 to 20 nM.

Take `COc1cc(C(C)N2CCN(c3ccc(-c4cn[nH]c4)c(C)n3)C2=O)ccc1F` (single isomer, unassigned) [Example 209, 1-(1-(4-fluoro-3-methoxyphenyl)ethyl)-3-(6-methyl-5-(1H-pyrazol-4-yl)pyridin-2-yl)imidazolidin-2-one]: the IC50 is 2.1 to 20 nM.

With `CCc1cc(N2CCN(Cc3ccccc3)C2=O)ccc1-c1cn[nH]c1` [Example 26, 1-Benzyl-3-(3-ethyl-4-(1H-pyrazol-4-yl)phenyl)imidazolidin-2-one], the IC50 lay within 20.1 to 200 nM.

For `O=c1n(Cc2cc(F)ccc2F)ccn1-c1ccc(-c2cn[nH]c2)cc1` [Example 408, 1-(4-(1H-pyrazol-4-yl)phenyl)-3-(2,5-difluorobenzyl)-1H-imidazol-2(3H)-one], the IC50 is 20.1 to 200 nM.

Molecule `COc1cc(F)cc(CN2CCN(c3ccc(-c4cn[nH]c4)c(C(F)(F)F)c3)C2=O)c1` [Example 276, 1-(4-(1H-pyrazol-4-yl)-3-(trifluoromethyl)phenyl)-3-(3-fluoro-5-methoxybenzyl)imidazolidin-2-one] had an IC50 of 20.1 to 200 nM.

In the case of `COc1cc(F)cc(CN2CCN(c3cc(OC)c(-c4cn[nH]c4)cn3)C2=O)c1` [Example 472, 1-(3-fluoro-5-methoxybenzyl)-3-(4-methoxy-5-(1H-pyrazol-4-yl)pyridin-2-yl)imidazolidin-2-one], the 50% inhibitory concentration (IC50) is 2.1 to 20 nM.

In turn, `COc1cccc(C(CO)n2ccn(-c3ccc(-c4cn[nH]c4)cc3)c2=O)c1` (single isomer, unassigned) [Example 324, 1-(4-(1H-Pyrazol-4-yl)phenyl)-3-(2-hydroxy-1-(3-methoxyphenyl)ethyl)-1H-imidazol-2(3H)-one] gave an IC50 of less than 2 nM.

The molecule `COc1cc(F)cc(CN2CCN(c3ccc(-c4cn[nH]c4)c(OC)n3)C2=O)c1` [Example 467, 1-(3-fluoro-5-methoxybenzyl)-3-(6-methoxy-5-(1H-pyrazol-4-yl)pyridin-2-yl)imidazolidin-2-one] returned an IC50 of less than 2 nM.

With `Cc1cccc(CN2CCN(c3ccc(-c4cn[nH]c4)cn3)C2=O)c1` [Example 234, 1-(5-(1H-pyrazol-4-yl)pyridin-2-yl)-3-(3-methylbenzyl)imidazolidin-2-one], the concentration for half-maximal inhibition (IC50) lay in the range of 20.1 to 200 nM.

`CCNC(=O)C(c1cccc(OC)c1)N1CCN(c2ccc(-c3cn[nH]c3)cc2)C1=O` (single isomer, unassigned) [Example 290, 2-(3-(4-(1H-Pyrazol-4-yl)phenyl)-2-oxoimidazolidin-1-yl)-N-ethyl-2-(3-methoxyphenyl)acetamide]: the concentration for half-maximal inhibition (IC50) lay in the range of 20.1 to 200 nM.

`COc1cccc(C(C)N2CCN(c3ccc(-c4cn[nH]c4)c(C)n3)C2=O)c1` (single isomer, unassigned) [Example 181, 1-(1-(3-methoxy-phenyl)-ethyl)-3-(6-methyl-5-(1H-pyrazol-4-yl)pyridin-2-yl)-imidazolidin-2-one] registered an IC50 of 2.1 to 20 nM.

Molecule `COc1cccc(CN2CCN(c3ccc(-c4ccnc(F)c4)c(OC)n3)C2=O)c1` [Example 319, 1-(2′-fluoro-2-methoxy-[3,4′-bipyridin]-6-yl)-3-(3-methoxybenzyl)imidazolidin-2-one] came in with an IC50 of 2.1 to 20 nM.

With `COc1cccc(C(CO)N2CCN(c3ccc(-c4cn[nH]c4)cc3)C2=O)c1` (single isomer, unassigned) [Example 154, 1-(4-(1H-Pyrazol-4-yl)phenyl)-3-(2-hydroxy-1-(3-methoxyphenyl)ethyl)imidazolidin-2-one], the IC50 was 20.1 to 200 nM.

`O=C1CN(c2ccc(-c3cn[nH]c3)cc2)C(=O)N1Cc1ccccc1Cl` [Example 111, 1-(4-(1H-pyrazol-4-yl)phenyl)-3-(2-chlorobenzyl) imidazolidine-2,4-dione] yielded an IC50 of 2.1 to 20 nM.

Consider `O=C1N(CCc2ccccc2)CCN1c1ccc(-c2ccncc2F)cc1` [Example 53, 1-(4-(3-fluoropyridin-4-yl)phenyl)-3-phenethylimidazolidin-2-one], for which the IC50 lay in the range of 200 to 2000 nM.

Turning to `CCc1nc(N2CCN(C(C)c3cc(F)cc(OC)c3)C2=O)ccc1-c1cn[nH]c1` (single isomer, unassigned) [Example 268, 1-(6-ethyl-5-(1H-pyrazol-4-yl)pyridin-2-yl)-3-(1-(3-fluoro-5-methoxyphenyl)ethyl)imidazolidin-2-one], the IC50 is less than 2 nM.

In turn, `COc1cccc(C(CO)N2CCN(c3ccc(-c4cn[nH]c4)c(C)n3)C2=O)c1` (single isomer, unassigned) [Example 161, 1-(2-hydroxy-1-(3-methoxy-phenyl)ethyl)-3-(6-methyl-5-(1H-pyrazol-4-yl)pyridin-2-yl)imidazolidin-2-one] yielded an IC50 of 2.1 to 20 nM.

As for `CNCC(c1cccc(OC)c1)N1CCN(c2ccc(-c3cn[nH]c3)cc2)C1=O` (single isomer, unassigned) [Example 309, 1-(4-(1H-Pyrazol-4-yl)phenyl)-3-(1-(3-methoxyphenyl)-2-(methylamino)ethyl)imidazolidin-2-one], the IC50 is 20.1 to 200 nM.

`COc1cccc(C(C(=O)O)n2ccn(-c3ccc(-c4cn[nH]c4)cn3)c2=O)c1` (stereo not drawn) [Example 351, 2-(3-(5-(1H-pyrazol-4-yl)pyridin-2-yl)-2-oxo-2,3-dihydro-1H-imidazol-1-yl)-2-(3-methoxyphenyl)acetic acid] displayed a half-inhibitory concentration (IC50) of 200 to 2000 nM.

As for `CNc1nc(N2CCN(Cc3cccc(OCC4CC4)c3)C2=O)ccc1-c1cn[nH]c1` [Example 201, 1-(3-(cyclopropyl-methoxy)-benzyl)-3-(6-(methyl-amino)-5-(1H-pyrazol-4-yl)pyridin-2-yl)-imidazolidin-2-one], the IC50 was in the range of 200 to 2000 nM.

Turning to `COc1cc(F)cc(CN2CCN(c3ccc(-c4cn[nH]c4)cc3)C2=O)c1` [Example 118, 1-(4-(1H-pyrazol-4-yl)phenyl)-3-(3-fluoro-5-methoxybenzyl)imidazolidin-2-one], the IC50 is less than 2 nM.
